Results reported in PMC11173382, “In Vitro Investigations into the Potential Drug Interactions of Pseudoginsenoside DQ Mediated by Cytochrome P450 and Human Drug Transporters” (Molecules, 2024).

Legend:
hBCRP = target: T1, hBCRP (Homo sapiens, UniProt Q9UNQ0); assay: Vesicular transport assay with sf9-BCRP vesicles (3H-ES); format: in vitro ADME; settings: for Transport activity of BCRP (main text: percentage inhibition): negative control = 100%
T1 construct: purchased GenoMembrane DNAIG03; host or cells: Sf9 insect cell membrane vesicles
T1 sequence (Q9UNQ0 1-655): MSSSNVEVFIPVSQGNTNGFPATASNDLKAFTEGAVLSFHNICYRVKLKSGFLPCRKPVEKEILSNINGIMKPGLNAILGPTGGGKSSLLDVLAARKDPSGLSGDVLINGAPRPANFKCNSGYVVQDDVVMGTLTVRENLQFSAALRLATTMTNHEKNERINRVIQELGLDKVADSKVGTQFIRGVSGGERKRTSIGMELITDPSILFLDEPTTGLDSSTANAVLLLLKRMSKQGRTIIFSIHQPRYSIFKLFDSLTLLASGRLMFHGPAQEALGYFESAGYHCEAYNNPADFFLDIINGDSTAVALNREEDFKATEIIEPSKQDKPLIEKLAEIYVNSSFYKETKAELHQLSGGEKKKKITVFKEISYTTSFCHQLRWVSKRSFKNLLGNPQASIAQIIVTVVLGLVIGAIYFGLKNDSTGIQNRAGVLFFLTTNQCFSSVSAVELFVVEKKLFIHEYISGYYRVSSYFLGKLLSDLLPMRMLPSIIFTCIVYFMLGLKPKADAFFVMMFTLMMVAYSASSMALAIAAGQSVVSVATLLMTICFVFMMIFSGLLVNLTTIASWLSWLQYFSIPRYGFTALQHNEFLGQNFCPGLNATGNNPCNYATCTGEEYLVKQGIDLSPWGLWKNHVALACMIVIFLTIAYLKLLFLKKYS
Excerpt: Drug transporters mediate the cellular uptake and efflux of their substrates. Therefore, cell lines overexpressing a drug transporter can be utilized to investigate inhibitors of the transporter by assessing changes in substrate uptake. For each drug transporter, we selected a well-characterized inhibitor as the positive control. Radiolabeled substrates were used to indicate the decrease in transport efficiency when the drug transporters were inhibited by PDQ or the control inhibitors.
The concentrations of the control drugs and the substrates were stated in the assay details. Working solutions of the control inhibitors, the radiolabeled substrates, and each dose of PDQ were prepared at 200 times (200×) more concentrated solutions with DMSO for further dilution.
Transporter-overexpressed cell lines. Human organic anion transporter-overexpressed cell lines MDCKII-OAT1 and S2-OAT3, human organic anion transport polypeptide-overexpressed cell lines HEK293A-OATP1B1 and HEK293A-OATP1B3, human organic cation transporter 2-overexpressed cell line S2-OCT2, and human multi-drug resistance protein MDR1 (or P-gp)-overexpressed cell line MDCKII-MDR1 were gifts from Japan Fuji Biomedical Co., Ltd. (Fuji, Shizuoka Prefecture, Japan). Breast cancer resistance protein-overexpressed vesicles (sf9-BCRP vesicle) were purchased from GenoMembrane Co., Ltd. (Yokohama, Kanagawa, Japan).
Vesicular transport assay with the sf9-BCRP model. Vesicular transport assay was conducted to measure the interaction between PDQ and the efflux transporter BCRP, using sf9-BCRP vesicles (Cat. No, DNAIG03, GenoMembrane, Yokohama, Kanagawa, Japan). The modulation of ^3H-ES transport reflects the level of the drug-transporter interaction.
The MgATP working solution was prepared by diluting the 200 mM stock solution with the transport buffer, while the reduced glutathione solution was made by dissolving glutathione (0.615 g) in 8 mL deionized water and adjusting the pH to 6.8 with 2M NaOH. The drug solution in the reaction mix was replaced with […] of transport buffer as the negative control mix. These reaction mixes were pre-incubated at 37 °C before use. All reagents were thawed on ice, and deionized water was used for the preparation.
The membrane suspension was gently mixed with ice-cold transport buffer and aliquoted to 1.5 mL centrifuge tubes on ice. Each tube contained […] of vesicles ([…] BCRP) and […] of transport buffer. The vesicle-containing tubes were pre-incubated at 37 °C for 5 min. Then, the reaction mixes were added to the tubes to initiate the assay. To terminate the reaction after 5 min, […] of washing buffer (40 mM MOPS-Tris and 70 mM KCl) was added to each tube on ice. The samples were then transferred to the filter and filtered. The filters were washed with 5 mL of cold washing buffer three times. Subsequently, the filters were placed at the bottom of the counting vials, and the scintillation cocktail was added. The filter and the cocktail were vigorously vortexed to mix. The remaining radiation in the samples was then measured with the scintillation counter. Each sample was replicated three times (N = 3).
In = [100 × (U − U0)/(Uc − U0)]%(3)
The results were expressed as mean ± standard deviation (SD) and analyzed with GraphPad Prism 8.0 software (CA, USA). The IC50 of PDQ was curve-fitted with the FORECAST function. Statistical significance was calculated using a two-tailed test, and a p value < 0.05 was considered as significant.

hOATP1B1 = target: T2, hOATP1B1 (Homo sapiens, UniProt Q9Y6L6); assay: Substrates uptake assay, HEK293A-OATP1B1 cells (3H-ES); format: in vitro ADME; settings: HEK293A-OATP1B1; 3H-ES 0.1 µM; 2 min
T2 sequence (Q9Y6L6 1-691): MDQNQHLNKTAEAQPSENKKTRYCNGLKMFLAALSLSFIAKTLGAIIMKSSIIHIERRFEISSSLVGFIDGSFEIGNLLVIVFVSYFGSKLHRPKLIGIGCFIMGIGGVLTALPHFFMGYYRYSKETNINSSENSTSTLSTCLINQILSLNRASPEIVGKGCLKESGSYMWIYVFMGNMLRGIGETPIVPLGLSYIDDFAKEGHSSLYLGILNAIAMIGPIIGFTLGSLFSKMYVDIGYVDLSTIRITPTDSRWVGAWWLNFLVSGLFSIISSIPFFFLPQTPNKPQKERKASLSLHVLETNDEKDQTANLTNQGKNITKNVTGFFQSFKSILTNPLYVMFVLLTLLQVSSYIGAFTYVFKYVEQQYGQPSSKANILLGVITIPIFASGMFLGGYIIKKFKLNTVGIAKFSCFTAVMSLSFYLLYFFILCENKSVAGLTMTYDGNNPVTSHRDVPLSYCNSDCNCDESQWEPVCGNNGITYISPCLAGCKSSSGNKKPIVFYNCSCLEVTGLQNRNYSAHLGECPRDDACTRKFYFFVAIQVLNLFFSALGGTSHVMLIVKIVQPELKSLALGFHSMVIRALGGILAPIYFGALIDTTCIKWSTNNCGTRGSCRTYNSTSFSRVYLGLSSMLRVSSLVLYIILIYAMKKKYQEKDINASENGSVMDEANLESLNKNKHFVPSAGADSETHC

## CC(C)(O)[C@@H]1CC[C@@](C)([C@H]2CC[C@]3(C)[C@@H]2[C@H](O)C[C@@H]2[C@@]4(C)CC[C@H](O)C(C)(C)[C@@H]4CC[C@]23C)O1 [PDQ, (20S,24S)-dammar-20,24-epoxy-3β, 12β, 25-triol]
hBCRP; inhibitor 0.1 μM
  DPM (3H-ES transport by BCRP): 5303.7±176.6 DPM
  Transport activity of BCRP (main text: percentage inhibition): 96.1±3.2%
hBCRP; inhibitor 0.3 μM
  DPM (3H-ES transport by BCRP): 2995.3±288.8 DPM
  Transport activity of BCRP (main text: percentage inhibition): 54.3±5.2%
hBCRP; inhibitor 1 μM
  DPM (3H-ES transport by BCRP): 2788.3±479.5 DPM
  Transport activity of BCRP (main text: percentage inhibition): 50.5±8.7%
hBCRP; inhibitor 3 μM
  DPM (3H-ES transport by BCRP): 2352.7±355.1 DPM
  Transport activity of BCRP (main text: percentage inhibition): 42.7±6.4%
hBCRP; inhibitor 10 μM
  DPM (3H-ES transport by BCRP): 1997.3±185.1 DPM
  Transport activity of BCRP (main text: percentage inhibition): 36.2±3.4%
hBCRP; inhibitor 30 μM
  DPM (3H-ES transport by BCRP): 1911.0±179.5 DPM
hBCRP; sf9-BCRP vesicles, 3H-ES 1 µM, 5 min
  IC50: 1.08 µM
hOATP1B1
  IC50: 13.1 µM
